# Experimental data taken from a melting point compilation (Tetko et al.; mined from patent text by program, amines drawn as free bases though some values may be those of a salt).
row,melting point,SMILES
1,179 to 180 °C,CCOC(Cc1ccc(OCc2nc(C(C)(C)C)oc2C)c2ccsc12)C(=O)O (stereo unspecified)
2,219 to 220 °C,CCCc1nnc2c(=O)n(C)c3ccc(OC)cc3n12
3,78 to 81 °C,O=[N+]([O-])c1ccc(Cl)c(C2OCCO2)c1
4,104 to 108 °C,CC(C)(C)OC(=O)N1[C@@H](C2CC2)[C@H](C(=O)O)OC1(C)C
5,178 to 180 °C,CC(=O)NC1COc2c(C)ccc(N)c2C1=O (stereo unspecified)
6,120 to 122 °C,CN(CCN1CCOCC1)C(=O)c1ccc(COc2cccc3c2CN(C2CCC(=O)NC2=O)C3=O)cc1 (stereo unspecified)
7,134 to 137 °C,Cc1c(NC(=O)C(CSC(=O)Cc2cccs2)Cc2ccccc2)cccc1C(=O)O (stereo unspecified)
8,207 to 209 °C,CC(C)(C)C(=O)c1c[nH]c2ncc(C3=C(c4ccccc4)CCC3)nc12
9,174 to 177 °C,CCCCc1oc2ccccc2c1-c1ncc(-c2ccc3cc(OC(Cc4ccccc4)C(=O)O)ccc3c2)o1 (stereo unspecified)
10,102 to 105 °C,NC(=O)c1ccccc1OCC1CC1
11,285 °C,CC(=O)c1cc2sc(N)c(C#N)c2s1
12,180 °C,NS(=O)(=O)c1ccsc1C1=NOCCO1
13,94 to 96 °C,CC(=O)Nc1c(C)c(C)c2c(c1C)CC(C)(CN1CCC(c3ccccc3)CC1)O2 (stereo unspecified)
14,121 to 122 °C,NC(CO)(CO)CCc1ccc(C(=O)CCCCCCc2ccccc2)cc1
15,169 to 172 °C,O=c1[nH]nc(-c2ccccc2SCc2ccccc2)o1
16,246 to 247 °C,Oc1ncnc2c1c(Nc1ccccc1)nn2Cc1ccccc1
17,202 to 203 °C,O=C(O)CCC(=O)c1cc2c(s1)CCc1ccccc1C2
18,> 270 °C,CCn1c(=O)c2c(nc(/C=C/c3ccc(O)cc3)n2C)n(CC)c1=O
19,258 to 260 °C,COc1cccc(C2=Nc3ccc(N4CCCC4)cc3C(=O)C2)c1OC
20,128 to 129 °C,COc1ccc(-c2nn(C(C)C)c3c(C(F)(F)F)cccc23)c(OC)c1
21,70 °C,O=C(CCl)N1CCC(Cc2ccc(Cl)cc2)CC1
22,233 to 234 °C,O=C(O)Cc1c(C(=O)c2cc(Cl)ccn2)[nH]c2cc(Cl)ccc12
23,211 to 212 °C,COC(=O)C1OC(Oc2nc[nH]c2C(N)=O)C(OC(C)=O)C(OC(C)=O)C1OC(C)=O (stereo unspecified)

row,melting point,SMILES
1,108 to 110 °C,COCCNC(=O)c1cccc(-c2cccc3cc(Cc4cccc(F)c4)sc23)c1
2,255 to 257 °C,Cc1cc2c(cc1C1=NNC(=O)CC1)NC(=O)CO2
3,215 to 216 °C,NC(=O)c1[nH]cnc1OC1OC(COCc2ccccc2)C(OCc2ccccc2)C1OCc1ccccc1 (stereo unspecified)
4,290 °C,O=C(Nc1ccc(F)cc1F)c1nc(Cl)c(Cl)[nH]1
5,179 to 180 °C,CCOCc1nc2c(N)nc(C)c(C)c2n1CCCNC(=O)C(C)C
6,180 °C,COc1ccc(CN(C)CCc2ccc(NC(=O)c3cccc4c(=O)c5ccccc5sc34)cc2)cc1OC
7,178 °C,CC(Oc1cccc(OCc2ccc3ccc(Br)cc3n2)c1)C(=O)O (stereo unspecified)
8,200 to 202 °C,CCOC(=O)c1c(N)sc(C#N)c1C
9,197 to 200 °C,O=C1COc2ccc(NC(=O)C(=O)N3CCC(Cc4ccc(F)cc4)CC3)cc2N1
10,> 275 °C,Cc1ccc(C(=O)Nc2nc(-c3ccccc3)c(-c3nc4ccccc4c(=O)n3-c3ccccc3Cl)s2)cc1
11,75 to 77 °C,Cc1ccc(CC(=O)NC(NC(=NC#N)Nc2cccnc2C)C(C)(C)C)cc1F (stereo unspecified)
12,41 to 43 °C,FC(F)Sc1nc2ncccc2s1
13,124 °C,Cc1cc2cnnc(OCc3ccccc3)c2n1Cc1ccccc1
14,279 to 281 °C,COc1ncccc1-c1nc(C(N)=O)c2[nH]c(=O)n(-c3ccccc3)c2n1
15,190 to 192 °C,CCCc1c(C(=O)NCc2ccc(-c3ccc(OCC(=O)O)cc3)cc2)cnn1-c1ccccc1
16,152 to 154 °C,NC(=O)c1cnn2c1NCCC2c1cccc(C(F)(F)F)c1 (stereo unspecified)
17,246 to 250 °C,CC(=O)Nc1c(C(=O)c2cccc([N+](=O)[O-])c2)[nH]c2cc(Cl)ccc12
18,140 to 145 °C,CN(C)CC(C)(C)Oc1ccc(Nc2cc(-c3cccc(-n4ncc5cc(C(C)(C)C)cc(F)c5c4=O)c3CO)nn(C)c2=O)nn1
19,191 to 192 °C,Cc1cccc(-c2nc3ccc(Cl)nn3c2-c2ccnc(Nc3ccccc3C)c2)c1
20,159 to 162 °C,O=C1OC(OC(=O)c2cccnc2Nc2cccc(C(F)(F)F)c2)c2ccccc21 (stereo unspecified)
21,180 °C,CCCN(CCC)c1nc2c(Cl)nccc2c(=O)[nH]1
22,177 to 180 °C,CS(=O)(=O)Nc1ccc2c(c1)S(=O)(=O)NC1CCCN21 (stereo unspecified)
23,99 to 102 °C,CCOc1cccc(N2C(=O)C(=CN(C)C)c3ccccc32)c1

row,melting point,SMILES
1,231 to 234 °C,CCOC(=O)c1cc(-c2csc(N(C)S(=O)(=O)c3ccccc3)n2)c(=O)[nH]c1C
2,72 to 74 °C,O=C1NC(=O)C(Cc2ccc(OC3CCN(C(=O)OCc4ccccc4)CC3)cc2)S1 (stereo unspecified)
3,70 to 72 °C,COC=C(C#C[Si](C)(C)C)C(=O)OC
4,138 to 141 °C,O=Cc1ccc(N(c2ccccc2)c2ccc3c4c(cccc24)CC3)cc1
5,169 to 172 °C,COc1ccc(C(=O)N2CCc3nnc(NN)cc3C2)cc1
6,154 to 156 °C,CCOC(=O)c1c(N)sc2c1CN(C(=O)OCC)C2
7,> 300 °C,O=C1Nc2ccc(C(F)(F)F)cc2C1c1nc(Cl)nc2nn(C3CCCC3)cc12 (stereo unspecified)
8,91 to 93 °C,O=C(O)Cc1cccc(Sc2ccccc2Cl)c1O
9,252 to 254 °C,FC(F)(F)c1nc2cnc3ccccc3c2[nH]1
10,70 °C,O=S(=O)(c1ccc(Br)s1)N(CCO)CCO
11,128 °C,CC1ON(C)C(=O)C(C(=O)c2ccc(Cl)cc2[N+](=O)[O-])C1=O (stereo unspecified)
12,148 °C,Cc1c(Cl)c(C(C)(C)C)c(Cl)c(C)c1S(=O)(=O)Cl
13,257 °C,CCOC(=O)c1c(C)[nH]c2ccc(C(=O)c3c(C)c(OC)c4ccccn34)cc2c1=O
14,150 to 152 °C,COC(=O)c1cccc2c1OC1CC(N=[N+]=[N-])C(O)C21 (stereo unspecified)
15,234 to 235 °C,COc1cc(S(C)(=O)=O)ccc1-c1nc2cnccc2[nH]1
16,158 °C,Nc1cc(CO)cc([N+](=O)[O-])c1-c1ccc(O)cc1
17,72 to 74 °C,COC(CNc1ccc(C(O)(C(F)(F)F)C(F)(F)F)cc1)OC
18,277 to 279 °C,CNc1nc(-c2cccc(NC(=O)c3ccc(S(C)(=O)=O)cc3)c2)c2cc(OC)c(OC)cc2n1
19,103 to 105 °C,COc1ccc(NC(=O)c2coc(-c3ccncc3)c2)cc1N1CCN(C)CC1
20,166 to 168 °C,Oc1ccc2c(c1O)OCC(c1ccc(F)cc1)C2 (stereo unspecified)
21,135 °C,Cc1ccc(S(=O)(=O)Cc2c(C(F)(F)F)nn(C)c2O)cc1

row,SMILES,melting point
1,O=C1Nc2ccccc2C1(O)c1ccc2c(c1)OCO2 (stereo unspecified),177 to 180 °C
2,CC(=O)OCCNC(=O)Nc1ccc2c(c1)C(c1ccccc1F)=NCC(=O)N2C,196 to 198 °C
3,CN1C[C@H](CN2CCN(C(c3ccccc3)c3ccccc3)CC2)C[C@@H]2c3cccc4[nH]c(Cl)c(c34)C[C@H]21,250 °C
4,Cc1[nH]c2ccc(O)cc2c1C(=O)NC1CCN(CCc2ccccc2)CC1,232 to 236 °C
